From patent US7612113B2, “Hydroxy tetrahydro-naphthalenylurea derivatives” (Xention Limited, priority 2002, dated 2009)

How the values were obtained:
[1] = molecular target: T1, human VR1 (Homo sapiens, UniProt Q8NER1); test: capsaicin-induced Ca2+ influx in the human VR1-transfected CHO cell line (Assay 1); format: cell-based; settings: Table 1; 10 nM capsaicin, human VR1-CHOluc9aeq cells; read-out: activity class
T1 construct: expressed in transfected cells
From the text: [Measurement of capsaicin-induced Ca^2+ influx in the human VR1-transfected CHO cell line] (Assay 1)
• (1) Establishment of the Human VR1-CHOluc9aeq Cell Line • Human vanilloid receptor (hVR1) cDNA was cloned from libraries of axotomized dorsal root ganglia (WO 00/29577). The cloned hVR1 cDNA was constructed with pcDNA3 vector and transfected into a CHOluc9aeq cell line. The cell line contains aequorin and CRE-luciferase reporter genes as read-out signals. The transfectants were cloned by limiting dilution in selection medium (DMEM/F12 medium (Gibco BRL) supplemented with 10% FCS, 1.4 mM Sodium pyruvate, 20 mM HEPES, 0.15% Sodium bicarbonate, 100 U/ml penicillin, 100 μg/ml streptomycin, 2 mM glutamine, non-essential amino acids and 2 mg/ml G418). Ca^2+ influx was examined in the capsaicin-stimulated clones. A high responder clone was selected and used for further experiments in the project. The human VR1-CHOluc9aeq cells were maintained in the selection medium and passaged every 3-4 days at 1-2.5×10^5 cells/flask ([…]). • (2) Measurement of Ca^2+ Influx Using FDSS-3000 • Human VR1-CHOluc9aeq cells were suspended in a culture medium which is the same as the selection medium except for G418 and seeded at a density of 1,000 cells per well into 384-well plates (black walled clear-base/Nalge Nunc International). Following the culture for 48 hrs the medium was changed to 2 μM Fluo-3 AM (Molecular Probes) and 0.02% Puronic F-127 in assay buffer (Hank's balanced salt solution (HBSS), 17 mM HEPES (pH7.4), 1 mM Probenecid, 0.1% BSA) and the cells were incubated for 60 min at. 25° C. After washing twice with assay buffer the cells were incubated with a test compound or vehicle for 20 min at 25° C. Mobilization of cytoplasmic Ca^2+ was measured by FDSS-3000 (λex=488 nm, λem=540 nm/Hamamatsu Photonics) for 60 sec after the stimulation with 10 nM capsaicin. Integral R was calculated and compared with controls. [Measurement of the Capsaicin-Induced Ca^2+ Influx in Primary Cultured Rat Dorsal Root Ganglia Neurons] (Assay 2) • (1) Preparation of Rat Dorsal Root Ganglia Neurons • New born Wister rats (5-11 days) were sacrificed and dorsal root ganglia (DRG) was removed. DRG was incubated with 0.1% trypsin (Gibco BRL) in PBS(−) (Gibco BRL) for 30 min at 37° C., then a half volume of fetal calf serum (FCS) was added and the cells were spun down. The DRG neuron cells were resuspended in Ham F12/5% FCS/5% horse serum (Gibco BRL) and dispersed by repeated pipetting and passing through 70 μm mesh Falcon). The culture plate was incubated for 3 hours at 37° C. to remove contaminating Schwann cells. Non-adherent cells were recovered and further cultured in laminin-coated 384 well plates (Nunc) at 1×10^4 cells/50 μl/well for 2 days in the presence of 50 ng/ml recombinant rat NGF (Sigma) and 50 μM 5-fluorodeoxyuridine (Sigma). • (2) Ca^2+ Mobilization Assay • DRG neuron cells were washed twice with HBSS supplemented with 17 mM HEPES (pH 7.4) and 0.1% BSA. After incubating with 2 μM fluo-3AM (Molecular Probe), 0.02% PF127 (Gibco BRL) and 1 mM probenecid (Sigma) for 40 min at 37° C., cells were washed 3 times. The cells were incubated with VR1 antagonists or vehicle (dimethylsulphoxide) and then with 1 μM capsaicin in FDSS-6000 (λex=480 nm, λem=520 nm/Hamamatsu Photonics). The fluorescence changes at 480 nm were monitored for 2.5 min. Integral R was calculated and compared with controls. [Organ Bath Assay to Measure the Capsaicin-Induced Bladder Contraction] (Assay 3)
The data corresponds to the compounds as yielded by solid phase synthesis and thus to levels of purity of about 40 to 90%. For practical reasons, the compounds are grouped in four classes of activity as follows: IC50=A(<or=)0.1 μM<B(<or=)0.5 μM<C(<or=)1 μM<D

T1 sequence (Q8NER1 whole entry): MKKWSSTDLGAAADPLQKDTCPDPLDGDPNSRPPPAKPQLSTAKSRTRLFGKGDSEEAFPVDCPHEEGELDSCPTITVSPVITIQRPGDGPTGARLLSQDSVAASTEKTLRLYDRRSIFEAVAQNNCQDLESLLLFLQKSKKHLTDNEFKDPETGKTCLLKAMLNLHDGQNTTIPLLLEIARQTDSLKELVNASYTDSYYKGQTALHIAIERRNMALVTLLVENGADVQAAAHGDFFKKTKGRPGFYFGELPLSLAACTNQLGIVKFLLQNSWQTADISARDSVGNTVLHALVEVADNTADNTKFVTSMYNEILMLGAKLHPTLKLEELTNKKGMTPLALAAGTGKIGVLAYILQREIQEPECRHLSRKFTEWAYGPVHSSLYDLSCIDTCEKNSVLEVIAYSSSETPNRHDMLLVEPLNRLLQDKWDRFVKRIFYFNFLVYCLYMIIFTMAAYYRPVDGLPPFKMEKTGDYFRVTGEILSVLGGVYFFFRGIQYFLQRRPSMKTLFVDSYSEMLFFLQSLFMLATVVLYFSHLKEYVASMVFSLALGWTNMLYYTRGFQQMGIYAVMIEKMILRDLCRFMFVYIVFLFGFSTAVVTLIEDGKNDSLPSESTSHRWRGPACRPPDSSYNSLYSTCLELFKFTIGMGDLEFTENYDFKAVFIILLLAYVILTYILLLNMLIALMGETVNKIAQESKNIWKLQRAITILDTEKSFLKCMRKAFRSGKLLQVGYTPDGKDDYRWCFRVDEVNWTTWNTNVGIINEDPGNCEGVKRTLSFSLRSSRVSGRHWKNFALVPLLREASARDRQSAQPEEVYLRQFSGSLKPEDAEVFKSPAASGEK

Compound `Cc1ccc(NC(=O)Nc2ccc(Cl)c(C(F)(F)F)c2)c2c1CCC(O)C2` (stereo not shown) [Example 2-39] has an IC50 [1] of less than 100 nM and a melting point of 219 to 220 °C.
For `CN(C)c1ccc(NC(=O)Nc2cccc3c2CC(O)CC3)cc1` (stereo not shown) [Example 2-21], the IC50 [1] was greater than 1000 nM and the melting point was 206 to 207 °C.
For `O=C(Nc1cccc(Cl)c1)Nc1cccc2c1CC(O)CC2` (stereo not shown) [Example 2-3], the IC50 [1] was less than 100 nM and the melting point was 216 to 218 °C.
With `O=C(NCc1cccc(F)c1)Nc1cccc2c1CC(O)CC2` (stereo not shown) [Example 2-28] the IC50 [1] was 100 to 500 nM and the melting point was 193 to 194 °C.
`O=C(Nc1ccc(C(F)(F)F)cc1)Nc1cccc2c1CC(O)CC2` (stereo not shown) [Example 2-9] showed an IC50 [1] of less than 100 nM and a melting point of 222 to 224 °C.
